In publication PMC5177923 (2016):

Experiments:
[1] = test system: c-mycBiotin (DNA, i motif) CCTTCCCCACCCTCCCCACCCTCCCCA; assay: SPR, equilibrium affinity fit, 1:1 model; conditions: 100 mM NaCl; 10 mM sodium cacodylate pH 5.5, 0.05% Tween-20, 5% DMSO, 25 °C
[2] = test system: hTeloC (DNA, i motif) TAACCCTAACCCTAACCCTAACCC; assay: circular dichroism; conditions: 100 mM NaCl; 10 mM sodium cacodylate pH 5.5, 20 °C
[3] = test system: DSBiotin (DNA, duplex) GGCATAGTGCGTGGGCGTTAGC/GCTAACGCCCACGCACTATGCC; assay: SPR, equilibrium affinity fit, 1:1 model; conditions: 100 mM NaCl; 10 mM sodium cacodylate pH 5.5, 0.05% Tween-20, 5% DMSO, 25 °C
[4] = test system: DSFRET (DNA, hairpin, HEG(18) linker (non-nucleotide) between 10 and 11) TATAGCTATATATAGCTATA; assay: FRET melting; conditions: 100 mM NaCl; 10 mM sodium cacodylate pH 7.4; 10 μM compound, 200 nM DNA
[5] = test system: hTeloCBiotin (DNA, i motif) TAACCCTAACCCTAACCCTAACCC; assay: SPR, equilibrium affinity fit, 1:1 model; conditions: 100 mM NaCl; 10 mM sodium cacodylate pH 5.5, 0.05% Tween-20, 5% DMSO, 25 °C
[6] = test system: hTeloGFRET (DNA, G4) GGGTTAGGGTTAGGGTTAGGG; assay: FRET melting; conditions: 100 mM NaCl; 10 mM sodium cacodylate pH 7.4; 10 μM compound, 200 nM DNA
[7] = test system: hTeloCFRET (DNA, i motif) TAACCCTAACCCTAACCCTAACCC; assay: FRET melting; conditions: 100 mM NaCl; 10 mM sodium cacodylate pH 6; 10 μM compound, 200 nM DNA

| SMILES | Kd [1] [µM] | binding [2] | Kd [3] | ∆Tm [4] | Kd [5] [µM] | ∆Tm [6] | ΔTm [7] | ΔTm [6] |
| --- | --- | --- | --- | --- | --- | --- | --- | --- |
| O=C1c2c(O)ccc(O)c2C(=O)c2c(NCCNCCO)ccc(NCCNCCO)c21 | 12 ± 3 | yes | ~ 71 ± 22 μM | +6.4 °C | 12 ± 3 | +16 °C |  |  |
| CN(C)CCNc1cccc2c1C(=O)c1cccc(NCCNc3ccccc3)c1C2=O |  |  |  |  |  |  | +17 °C | +0.4 °C |
